Test results reported in article PMC9758846, “Dinuclear and mononuclear metal(II) polypyridyl complexes against drug-sensitive and drug-resistant Plasmodium falciparum and their mode of action” (Malaria Journal, 2022).
Structures can show the parent of a compound that is named as a salt. Where two headings read alike, the source gives them in different places. Blank lines part the entries; values can stand above or below the compound they belong to.

Columns and labels:
[1] = PNDA assay of •OH radicals from reaction with H2O2; conditions: for Generation of ·OH radicals (in words): equimolar test compound with excess H2O2; for Concentration of •OH radical: 30 µM compound with excess H2O2
Method: A previously reported spectrometric assay using PNDA was used to quantify the amount of reactive oxygen species (ROS), viz. •OH radicals, produced by the reaction of metal(II) complexes with hydrogen peroxide in borate buffer at pH 7.5 [24–26]. The percentage of PNDA bleaching and the concentration of •OH produced were determined.

[2] = tested on: Plasmodium falciparum IPC5202 (Pf5202); experiment: In vitro anti-malarial activity using SYBR Green I nucleic acid dye; format: cell-based; conditions: for IC50: read-out: IC50 of Pf5202
Method: (§1) The drug-sensitive strain of P. falciparum 3D7 (Pf3D7) was obtained from the Department of Science, Monash University, Malaysia and cultured as previously described. The artemisinin-resistant strain of P. falciparum IPC5202 (Pf5202) was obtained from BEI Resources and cultured as mentioned in the product sheet. Both strains were maintained in sealed flask at 37 °C in a humidified atmosphere of 5% O2, 5% CO2 and 90% N2. All buffer stock solutions for biological assays were autoclaved at 121 °C for 15 min.
(§2) Previously reported anti-malarial assay was used with slight modification using 1% parasitaemia (ring-stage) and 5% haematocrit treated with test compounds at increasing concentration and incubated for 72 h at 37 °C [21–23]. After the incubation, the assay was terminated by freeze/thaw cycle (− 80 °C overnight before thawing for 2 h) before the addition of lysis buffer containing SYBR Green I dye into each well and mixed thoroughly using the belly dancer for 30 min in the dark. Chloroquine diphosphate salt and artemisinin were used as standard drugs. The fluorescence signal was quantified at 485 nm excitation wavelength and 528 nm emission wavelength. IC50 values of each test compound was determined from a dose response curve by non-linear regression analysis.

[3] = tested on: Plasmodium falciparum 3D7 (Pf3D7); experiment: as above; format: cell-based; conditions: read-out: IC50 of Pf3D7
Method: as §1, §2

[4] = target: Pf5202 20S proteasome chymotrypsin-like (CT-L) site (Plasmodium falciparum, UniProt Q8IJT1); experiment: 20S proteasome inhibition assay using parasite lysate; format: biochemical; conditions: Suc-LLVY-AMC, 30 min
Method: (§3) To harvest P. falciparum parasites, intraerythrocytic Pf3D7 and Pf5202 were collected in trophozoite and early schizont stages. Red blood cells were lysed in 0.15% (w/v) saponin lysis buffer for 10 min at 37 °C. After lysis, the parasite pellet was washed once with PBS buffer by centrifuging at 1600 rpm for 5 min. Saponin lysis buffer was added once again to remove all the red blood cells for 10 min at 37 °C, followed by washing with PBS twice and immediately used or kept at − 80 °C. To prepare parasite lysates for proteasome purification, parasite pellet was resuspended with 100 µl of pre-cooled Pierce™ RIPA buffer. A mild protein extraction method was used to prepare parasite extracts. The resuspended parasites were passed 20 times through a needle with a diameter of 0.4 mm in a syringe on ice to lyse the parasite. After 15 min centrifugation at 13,000 xg at 4 °C, the supernatant was removed. Protein concentration was determined by the Bradford assay. The activities of 3 proteolytic sites were determined by fluorescence assay using fluorogenic peptide substrates (Suc-LLVY-AMC for chymotrypsin-like, Boc-LRR-AMC for trypsin-like and Suc-LLE-AMC for caspase-like) Proteasome activities were determined by monitoring the substrate hydrolysis for 30 min at 37 °C with 340 nm excitation and 465 nm emission wavelength. Activity of each proteolytic site were calculated, and the IC50 values were determined from the non-linear regression analysis. VR23 proteasome inhibitor was used as positive control.

[5] = target: Pf3D7 20S proteasome caspase-like (C-L) site (Plasmodium falciparum, UniProt Q8I0U7); experiment: as above; format: biochemical; conditions: Suc-LLE-AMC, 30 min
Method: as §3

[6] = target: Pf5202 20S proteasome trypsin-like (T-L) site (Plasmodium falciparum, UniProt Q8I6T3); experiment: as above; format: biochemical; conditions: parasite lysate; Boc-LRR-AMC; 30 min
Method: as §3

[7] = target: Pf3D7 20S proteasome chymotrypsin-like (CT-L) site (Plasmodium falciparum, UniProt Q8IJT1); experiment: as above; format: biochemical; conditions: Suc-LLVY-AMC, 30 min
Method: as §3

[8] = target: Pf5202 20S proteasome caspase-like (C-L) site (Plasmodium falciparum, UniProt Q8I0U7); experiment: as above; format: biochemical; conditions: Suc-LLE-AMC, 30 min
Method: as §3

[9] = target: Pf3D7 20S proteasome trypsin-like (T-L) site (Plasmodium falciparum, UniProt Q8I6T3); experiment: as above; format: biochemical; conditions: Boc-LRR-AMC, 30 min
Method: as §3

[10] = tested on: B+ blood red blood cells (RBC); experiment: In vitro haemolytic assay; format: cell-based, human; conditions: 1 µM; 72 h; B+ blood
Method: Fresh B+ blood was washed with RPMI1640 medium containing of 30 µg/mL gentamicin (Gibco) and centrifuged at 1000 xg for 10 min three times. The percentage of haemolysis was determined spectroscopically using 5% haematocrit containing test compound at increasing concentration and incubated for 72 h at 37 °C [19, 20]. Untreated blood acted as negative control while blood treated with sterile distilled water acted as positive control (for 100% haemolysis).

[11] = 72 h incubation, listed as copper(II) nitrate

Chain of Pf5202 20S proteasome chymotrypsin-like (CT-L) site (Q8IJT1 entry or part of it): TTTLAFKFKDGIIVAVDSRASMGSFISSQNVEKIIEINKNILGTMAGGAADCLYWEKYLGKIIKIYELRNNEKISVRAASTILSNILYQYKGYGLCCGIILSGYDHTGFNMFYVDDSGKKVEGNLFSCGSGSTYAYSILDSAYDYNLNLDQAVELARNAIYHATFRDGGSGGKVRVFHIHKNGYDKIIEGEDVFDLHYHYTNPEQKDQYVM
Chain of Pf3D7 20S proteasome chymotrypsin-like (CT-L) site (Q8IJT1 entry or part of it): as above
Chain of Pf3D7 20S proteasome trypsin-like (T-L) site (Q8I6T3 entry or part of it): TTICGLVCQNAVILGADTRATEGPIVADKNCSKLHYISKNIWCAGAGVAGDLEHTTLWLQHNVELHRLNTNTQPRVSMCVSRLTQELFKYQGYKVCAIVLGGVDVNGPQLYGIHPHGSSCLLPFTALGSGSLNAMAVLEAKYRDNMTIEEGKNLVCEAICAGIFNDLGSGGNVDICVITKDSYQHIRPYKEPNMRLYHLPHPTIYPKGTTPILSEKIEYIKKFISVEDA
Chain of Pf5202 20S proteasome trypsin-like (T-L) site (Q8I6T3 entry or part of it): as above
Chain of Pf3D7 20S proteasome caspase-like (C-L) site (Q8I6T3 entry or part of it): as above
Chain of Pf3D7 20S proteasome caspase-like (C-L) site (Q8I0U7 entry or part of it): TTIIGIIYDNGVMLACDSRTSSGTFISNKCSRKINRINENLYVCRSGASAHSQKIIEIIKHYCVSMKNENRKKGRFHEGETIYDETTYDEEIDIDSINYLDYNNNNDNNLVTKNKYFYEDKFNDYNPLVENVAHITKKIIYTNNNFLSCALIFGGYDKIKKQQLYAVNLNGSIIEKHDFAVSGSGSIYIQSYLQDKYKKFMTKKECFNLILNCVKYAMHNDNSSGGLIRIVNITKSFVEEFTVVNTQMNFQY
Chain of Pf5202 20S proteasome caspase-like (C-L) site (Q8I0U7 entry or part of it): as above
Chain of Pf5202 20S proteasome caspase-like (C-L) site (Q8I6T3 entry or part of it, further chain): as the sequence (Q8I6T3 entry or part of it) above

SMILES: O.O.O.O.O.O.O=[N+]([O-])[O-].O=[N+]([O-])[O-].[Zn+2] [Zn(NO3)2·6H2O, Zinc(II) nitrate hexahydrate]
Generation of ·OH radicals (in words) [1]: did not generate any ·OH radicals
IC50 ([2]; 72 h incubation): > 100 µM
IC50 ([3]; 72 h incubation): > 100 µM

SMILES: O=[N+]([O-])c1ccc(S(=O)(=O)N2CCN(c3ccnc4cc(Cl)ccc34)CC2)c([N+](=O)[O-])c1 [VR23, reference compound]
IC50 [4]: > 5 µM
IC50 [5]: > 5 µM
IC50 [6]: 0.86 ± 0.09 µM
IC50 [7]: > 5 µM
IC50 [8]: > 5 µM
IC50 [9]: 0.78 ± 0.11 µM

SMILES: O.O.O.O=[N+]([O-])[O-].O=[N+]([O-])[O-].[Cu+2] [Cu(NO3)2·3H2O, Copper(II) nitrate trihydrate, reference compound]
Concentration of •OH radical ([1]; 2 h): 14.59 ± 2.39 µM
Concentration of •OH radical ([1]; 4 h): 19.27 ± 2.36 µM
Concentration of •OH radical ([1]; 24 h): 36.29 ± 1.80 µM
Concentration of •OH radical ([1]; 48 h): 33.20 ± 1.62 µM
Concentration of •OH radical ([1]; 72 h): 29.82 ± 1.60 µM
Percentage of haemolysis (haemolytic index, HI) [10]: 3%
IC50 [2, 11]: ~49 µM
IC50 ([2]; 72 h incubation): 49.4 ± 2.3 µM
IC50 [3, 11]: ~46 µM
IC50 ([3]; 72 h incubation): 46.1 ± 4.29 µM

IC50 ([2]; Plasmodium falciparum, 72 h incubation): > 100 µM
IC50 ([3]; Plasmodium falciparum, 3D7, 72 h incubation): > 100 µM
SMILES: c1cc(-c2ccncc2)ccn1 [4,4′-bipy, 4,4′-bipyridine]
Generation of ·OH radicals (in words) [1]: did not generate any ·OH radicals

IC50 ([2]; Plasmodium falciparum, 72 h): > 100 µM
IC50 ([3]; Plasmodium falciparum, 3D7, 72 h): 0.03 ± 0.01 µM
SMILES: CCN(CC)CCCC(C)Nc1ccnc2cc(Cl)ccc12 (stereo not shown) [CQ, Chloroquine diphosphate salt]
Drop in efficacy/potency towards Pf5202 relative to Pf3D7 ([2]; ratio of IC50 values): more than 3000 ×
